Key:
PD-L1 receptor = PD-L1 receptor (Mus musculus, UniProt Q9EP73); experiment: Membrane receptor expression analysis using flow cytometry; assay type: cell-based, murine; settings: 4T1, 500 nM, APC-conjugated PD-L1 antibody
CD47/SIRPα axis = experiment: In vitro phagocytosis assay, BMDMs cocultured with CT26.CL25; assay type: cell-based, BALB/c mice; settings: 30 min treatment of CT26.CL25, 200 nM; comparison of the two treated groups

Sequence of PD-L1 receptor (Q9EP73 19-290): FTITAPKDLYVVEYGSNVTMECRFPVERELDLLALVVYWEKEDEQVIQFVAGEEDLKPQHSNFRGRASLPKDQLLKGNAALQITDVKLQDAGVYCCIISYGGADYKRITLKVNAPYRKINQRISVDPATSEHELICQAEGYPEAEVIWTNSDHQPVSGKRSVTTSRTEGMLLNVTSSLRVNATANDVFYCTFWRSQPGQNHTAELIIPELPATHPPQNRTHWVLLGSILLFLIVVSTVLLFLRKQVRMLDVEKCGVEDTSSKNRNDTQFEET

Substance	PD-L1 expression (percentage of positive cells) (PD-L1 receptor; 1 h) [%]	PD-L1 expression (percentage of positive cells) (PD-L1 receptor; 48 h) [%]	phagocytic index (%) (CD47/SIRPα axis)
D-peptide NYSKPTDRQYHF [PD-L1-ligand]	3.29	7.82	
EEELQIIQPDKSVLVAAGETATLRCTITSLFPVGPIQWFRGAGPGRVLIYNQRQGPFPRVTTVSDTTKRNNMDFSIRIGNITPADAGTYYCIKFRKGSPDDVEFKSGAGTELSVRAKP [CD47-ligand]			similar

Source: article PMC10552107 (ACS Omega, 2023)
